Measured values: ChEMBL document CHEMBL5608241, “Discovery of Novel Non-nucleoside DOT1LR231Q Inhibitors with Improved Pharmacokinetic Properties and Anti-lung Cancer Efficacy” (J Med Chem, 2024)

Experiments:
NCI-H460 [1] = test: Antiproliferative activity against human NCI-H460 cells harboring DOT1L R231Q mutant (unknown origin) (1 to 416 residues) assessed as inhibition of cell proliferation incubated for 72 hrs by CCK-8 assay; assay type: functional, cell-based; conditions: NCI-H460, 72 h
NCI-H460 [2] = test: Antiproliferative activity against human NCI-H460 cells harboring wildtype DOT1L (unknown origin) (1 to 416 residues) assessed as inhibition of cell proliferation incubated for 72 hrs by CCK-8 assay; assay type: functional, cell-based; conditions: NCI-H460, 72 h
NCI-H460 [3] = test: Antitumor activity against human NCI-H460 cells harboring DOT1L R231Q OE mutant xenografted in male BALB/c-nu mouse model assessed as tumor growth inhibition at 20 mg/kg, ip administered five times a week for 3 weeks relative to control; assay type: functional; conditions: NCI-H460, 504 h, read-out: TGI
NCI-H460 [4] = test: Antiproliferative activity against human NCI-H460 cells harboring DOT1L R231Q mutant assessed as inhibition of cell proliferation incubated for 72 hrs by CCK-8 assay; assay type: functional, cell-based; conditions: NCI-H460, 72 h

Row | IC50 (NCI-H460 [1]) | IC50 (NCI-H460 [2]) | IC50 (NCI-H460 [4]) | Structure (SMILES) | inhibition in vivo at 20 mg/kg (NCI-H460 [3])
1 | 64.3 µM | 68.6 µM | – | CN(CCCNC(=O)Nc1ccc(C(C)(C)C)cc1)CC1CCCN(c2ncnc3[nH]cnc23)C1 (stereo unspecified) | –
2 | 14.5 µM | 6.47 µM | – | CC(C)N(CCCNC(=O)Nc1ccc(C(C)(C)C)cc1)CC1(O)CCN(c2nc(Cl)nc3[nH]ncc23)C1 (stereo unspecified) | –
3 | 16 µM | 7.56 µM | – | CC(C)N(CCCNC(=O)Nc1ccc(C(C)(C)C)cc1)CC1(O)CCN(c2nc(Cl)nc3sccc23)C1 (stereo unspecified) | –
4 | 81.2 µM | 75.7 µM | – | CC(C)N(CCCNC(=O)Nc1ccc(C(C)(C)C)cc1)CC1CCCN(C(=O)c2ccc[nH]c2=O)C1 (stereo unspecified) | –
5 | 91.2 µM | > 100 µM | – | CN(CCCNC(=O)Nc1ccc(C(C)(C)C)cc1)CC1CCCN(c2cc(C#N)ccn2)C1 (stereo unspecified) | –
6 | > 100 µM | > 100 µM | – | COC(=O)CCN(CCCNC(=O)Nc1ccc(C(C)(C)C)cc1)CC1(O)CCN(c2ncnc3[nH]cnc23)C1 (stereo unspecified) | –
7 | > 100 µM | > 100 µM | – | CN(CCCNC(=O)Nc1ccc(C(C)(C)C)cc1)CC1CCCN(C(=O)c2cnccn2)C1 (stereo unspecified) | –
8 | 23.2 µM | 64.5 µM | – | CC(C)(C)c1ccc(NC(=O)NCCCN(CCC(=O)N2CCSCC2)CC2(O)CCN(c3nc(Cl)nc4[nH]cnc34)C2)cc1 (stereo unspecified) | –
9 | 36.5 µM | 45.6 µM | – | CC(C)(C)c1ccc(NC(=O)NCCCN(CCCN2CCOCC2)CC2(O)CCN(c3ncnc4[nH]cc(Br)c34)C2)cc1 (stereo unspecified) | –
10 | 38.7 µM | 21.8 µM | – | CC(C)N(CCCNC(=O)Nc1ccc(C(C)(C)C)cc1)CC1CCCN(c2nc(Cl)nc3[nH]cnc23)C1 (stereo unspecified) | –
11 | 73.1 µM | > 100 µM | – | CC(C)(C)c1ccc(NC(=O)NCCCN(CCCN2CCOCC2)CC2(O)CCN(c3ncnc4[nH]cnc34)C2)cc1 (stereo unspecified) | –
12 | > 100 µM | > 100 µM | – | CC(C)N(CCCNC(=O)Nc1ccc(C(C)(C)C)cc1)CC1CCCN(c2cc(C#N)ccn2)C1 (stereo unspecified) | –
13 | 28.4 µM | 61.7 µM | – | COC(=O)CCN(CCCNC(=O)Nc1ccc(C(C)(C)C)cc1)CC1(O)CCN(c2nc(Cl)nc3[nH]ncc23)C1 (stereo unspecified) | –
14 | 30.9 µM | 72.6 µM | – | COC(=O)CCN(CCCNC(=O)Nc1ccc(C(C)(C)C)cc1)CC1(O)CCN(c2nc(Cl)nc3[nH]cnc23)C1 (stereo unspecified) | –
15 | 35.7 µM | 25.6 µM | – | CC(C)N(CCCNC(=O)Nc1ccc(C(C)(C)C)cc1)CC1(O)CCN(c2nc(N)nc3[nH]cnc23)C1 (stereo unspecified) | –
16 | 66.5 µM | 64.7 µM | – | CC(C)N(CCCNC(=O)Nc1ccc(C(C)(C)C)cc1)CC1CCCN(c2ncnc3[nH]cnc23)C1 (stereo unspecified) | –
17 | 48.1 µM | > 100 µM | – | CC(C)(C)C(=O)Nc1ccc2[nH]c(CN3CCC(N(CCCN4CCOCC4)CC4CCCN(c5nc(Cl)nc6[nH]cnc56)C4)CC3)nc2c1 (stereo unspecified) | –
18 | 47.1 µM | 41.3 µM | – | CC(C)(C)c1ccc(NC(=O)NCCCN(CCO)CC2(O)CCN(c3ncnc4[nH]cc(Br)c34)C2)cc1 (stereo unspecified) | –
19 | 89.6 µM | > 100 µM | – | CC(C)(C)c1ccc(NC(=O)NCCCN(CCC(=O)N2CCSCC2)CC2(O)CCN(c3ncnc4[nH]cnc34)C2)cc1 (stereo unspecified) | –
20 | 29.6 µM | > 100 µM | – | CC(C)(C)c1ccc(NC(=O)NCCCN(CCCN2CCOCC2)CC2(O)CCN(c3nc(N)nc4[nH]cnc34)C2)cc1 (stereo unspecified) | –
21 | 37.7 µM | 23.3 µM | – | CN(CCCNC(=O)Nc1ccc(C(C)(C)C)cc1)CC1CCCN(c2nc(Cl)nc3[nH]cnc23)C1 (stereo unspecified) | –
22 | 21.8 µM | 8.51 µM | – | CN(CCCNC(=O)Nc1ccc(C(C)(C)C)cc1)CC1(O)CCN(c2nc(Cl)nc3[nH]ncc23)C1 (stereo unspecified) | –

Row | IC50 (NCI-H460 [1]) | IC50 (NCI-H460 [2]) | IC50 (NCI-H460 [4]) | Structure (SMILES) | inhibition in vivo at 20 mg/kg (NCI-H460 [3])
23 | 52 µM | > 100 µM | – | CC(C)(C)C(=O)Nc1ccc2[nH]c(CN3CCC(N(CCCN4CCOCC4)CC4CCCN(c5nc(Cl)nc6[nH]ncc56)C4)CC3)nc2c1 (stereo unspecified) | –
24 | 45.3 µM | 35.2 µM | – | CC(C)N(CCCNC(=O)Nc1ccc(C(C)(C)C)cc1)CC1(O)CCN(c2ncnc3[nH]cc(Br)c23)C1 (stereo unspecified) | –
25 | – | – | 6.18 µM | CC(C)(C)C(=O)Nc1ccc2nc(CN3CCC(N(CCCN4CCOCC4)C[C@H]4O[C@@H](n5cnc6c(N)ncnc65)[C@H](O)[C@@H]4O)CC3)[nH]c2c1 | 54.4%
26 | 52.6 µM | 31.2 µM | – | CC(C)(C)c1ccc(NC(=O)NCCCN(CCO)CC2(O)CCN(c3nc(N)nc4[nH]cnc34)C2)cc1 (stereo unspecified) | –
27 | 16.2 µM | 44 µM | – | CC(C)(C)c1ccc(NC(=O)NCCCN(CCC(=O)N2CCSCC2)CC2(O)CCN(c3nc(Cl)nc4[nH]ncc34)C2)cc1 (stereo unspecified) | –
28 | 9.59 µM | 31.4 µM | – | CC(C)(C)c1ccc(NC(=O)NCCCN(CCCN2CCOCC2)CC2(O)CCN(c3nc(Cl)nc4[nH]cnc34)C2)cc1 (stereo unspecified) | –
29 | 25.6 µM | 17.6 µM | – | CC(C)N(CCCNC(=O)Nc1ccc(C(C)(C)C)cc1)CC1(O)CCN(c2nc(Cl)nc3[nH]ccc23)C1 (stereo unspecified) | –
30 | 50.8 µM | 27.7 µM | – | CN(CCCNC(=O)Nc1ccc(C(C)(C)C)cc1)CC1(O)CCN(c2nc(Cl)nc3ccsc23)C1 (stereo unspecified) | –
31 | 44.9 µM | 23.8 µM | – | CN(CCCNC(=O)Nc1ccc(C(C)(C)C)cc1)CC1(O)CCN(c2nc(N)nc3[nH]cnc23)C1 (stereo unspecified) | –
32 | 73.8 µM | > 100 µM | – | CC(C)(C)C(=O)Nc1ccc2[nH]c(CN3CCC(N(CCCN4CCOCC4)CC4CCCN(c5ncnc6[nH]cnc56)C4)CC3)nc2c1 (stereo unspecified) | –
33 | 38.4 µM | 53.9 µM | – | CC(C)(C)c1ccc(NC(=O)NCCCN(CCC(=O)N2CCOCC2)CC2(O)CCN(c3nc(Cl)nc4[nH]cnc34)C2)cc1 (stereo unspecified) | –
34 | 40.6 µM | 38.7 µM | – | CN(CCCNC(=O)Nc1ccc(C(C)(C)C)cc1)CC1(O)CCN(c2ncnc3[nH]cc(Br)c23)C1 (stereo unspecified) | –
35 | > 100 µM | > 100 µM | – | CC(C)(C)C(=O)Nc1ccc2[nH]c(CN3CCC(N(CCCN4CCOCC4)CC4CCCN(C(=O)c5cnccn5)C4)CC3)nc2c1 (stereo unspecified) | –
36 | 85.5 µM | > 100 µM | – | CC(C)(C)C(=O)Nc1ccc2[nH]c(CN3CCC(N(CCCN4CCOCC4)CC4CCCN(c5cc(C#N)ccn5)C4)CC3)nc2c1 (stereo unspecified) | –
37 | 95.5 µM | > 100 µM | – | CC(C)(C)c1ccc(NC(=O)NCCCN(CCC(=O)N2CCOCC2)CC2(O)CCN(c3ncnc4[nH]cnc34)C2)cc1 (stereo unspecified) | –
38 | 83.2 µM | 66.3 µM | – | CN(CCCNC(=O)Nc1ccc(C(C)(C)C)cc1)CC1CCCN(C(=O)c2ccc[nH]c2=O)C1 (stereo unspecified) | –
39 | 13.8 µM | 5.33 µM | – | CC(C)N(CCCNC(=O)Nc1ccc(C(C)(C)C)cc1)CC1(O)CCN(c2nc(Cl)nc3[nH]cnc23)C1 (stereo unspecified) | –
40 | 83.9 µM | 54.4 µM | – | CC(C)N(CCCNC(=O)Nc1ccc(C(C)(C)C)cc1)CC1(O)CCN(c2ncnc3[nH]ccc23)C1 (stereo unspecified) | –
41 | 36 µM | 8.83 µM | – | CC(C)N(CCCNC(=O)Nc1ccc(C(C)(C)C)cc1)C[C@H]1O[C@@H](n2cc(Br)c3c(N)ncnc32)[C@H](O)[C@@H]1O | –
42 | 7.15 µM | 18.9 µM | – | CC(C)(C)c1ccc(NC(=O)NCCCN(CCCN2CCOCC2)CC2(O)CCN(c3nc(Cl)nc4[nH]ncc34)C2)cc1 (stereo unspecified) | –
43 | 17.6 µM | 6.46 µM | – | CN(CCCNC(=O)Nc1ccc(C(C)(C)C)cc1)CC1(O)CCN(c2nc(Cl)nc3[nH]cnc23)C1 (stereo unspecified) | –
